From patent EP0326418A1, “GRF analogs” (THE UPJOHN COMPANY, priority 1988, dated 1989)
Where two headings read alike, the source gives them in different places. Where a SMILES comes first, the peptide text is derived from it. [ ]: non-standard residue; d: D form. The star is where a group is joined. Desaminotyrosyl = O=C(CCc1ccc(O)cc1)*; Cya = N[C@@H](CS(=O)(=O)O)C(=O)O; X1 = O=C(Cc1ccc(O)cc1)*

Assays:
[1] = tested on: bovine anterior pituitary cell culture; assay type: cell-based
[2] = proteolytic stability in bovine plasma (HPLC, modified Frohman method); details: bovine plasma
[3] = another assay, potency as a fraction of bGRF(1-44)NH₂

| Compound | the potency of bGRF(1-44)NH₂ [1] | potency (in words) ([1]; contemplated, compound not tested) | the potency of bGRF(1-44)NH₂ [1, 3] | remaining at 1 h [2] [%] |
| --- | --- | --- | --- | --- |
| CC[C@H](C)[C@H](NC(=O)[C@H](C)NC(=O)[C@H](CS(=O)(=O)O)NC(=O)[C@@H](C)NC(=O)CCc1ccc(O)cc1)C(=O)N[C@@H](Cc1ccccc1)C(=O)N[C@H](C(=O)N[C@@H](CC(N)=O)C(=O)N[C@@H](CO)C(=O)N[C@@H](Cc1ccc(O)cc1)C(=O)N[C@@H](CCCNC(=N)N)C(=O)N[C@@H](CCCCN)C(=O)N[C@H](C(=O)N[C@@H](CC(C)C)C(=O)N[C@@H](C)C(=O)N[C@@H](CCC(N)=O)C(=O)N[C@@H](CC(C)C)C(=O)N[C@@H](CO)C(=O)N[C@@H](C)C(=O)N[C@@H](CCCNC(=N)N)C(=O)N[C@@H](CCCCN)C(=O)N[C@@H](CC(C)C)C(=O)N[C@@H](CC(C)C)C(=O)N[C@@H](CCC(N)=O)C(=O)N[C@@H](CC(=O)O)C(=O)N[C@H](C(=O)N[C@@H](CC(C)C)C(=O)N[C@@H](CC(N)=O)C(=O)N[C@@H](CCCNC(=N)N)C(=O)N[C@@H](CCC(N)=O)C(=O)N[C@@H](CCC(N)=O)C(=O)NCC(N)=O)[C@@H](C)CC)C(C)C)[C@@H](C)O [Compound 10, Desamino-Tyr¹, D-Ala², Cya³, Ala¹⁵, Leu²⁷-bGRF(1-32)NH₂] (Desaminotyrosyl-[dA][Cya]AIFTNSYRKVLAQLSARKLLQDILNRQQG-NH2) | 1.40 | – | – | – |
| DesaminoTyr¹, Cya³, Ser⁸, Arg¹², Ala¹⁵, Arg²¹, Leu²⁷, Ser²⁸, Hse³³ bGRF(1-33)lactone [Compound 20] | – | high potency | – | – |
| CC[C@H](C)[C@H](NC(=O)[C@H](C)NC(=O)[C@H](CS(=O)(=O)O)NC(=O)[C@H](C)NC(=O)CCc1ccc(O)cc1)C(=O)N[C@@H](Cc1ccccc1)C(=O)N[C@H](C(=O)N[C@@H](CO)C(=O)N[C@@H](CO)C(=O)N[C@@H](Cc1ccc(O)cc1)C(=O)N[C@@H](CCCNC(=N)N)C(=O)N[C@@H](CCCNC(=N)N)C(=O)N[C@H](C(=O)N[C@@H](CC(C)C)C(=O)N[C@@H](C)C(=O)N[C@@H](CCC(N)=O)C(=O)N[C@@H](CC(C)C)C(=O)N[C@@H](CO)C(=O)N[C@@H](C)C(=O)N[C@@H](CCCNC(=N)N)C(=O)N[C@@H](CCCNC(=N)N)C(=O)N[C@@H](CC(C)C)C(=O)N[C@@H](CC(C)C)C(=O)N[C@@H](CCC(N)=O)C(=O)N[C@@H](CC(=O)O)C(=O)N[C@H](C(=O)N[C@@H](CC(C)C)C(=O)N[C@@H](CO)C(=O)N[C@@H](CCCNC(=N)N)C(=O)N[C@@H](CCC(N)=O)C(=O)N[C@@H](CCC(N)=O)C(=O)NCC(N)=O)[C@@H](C)CC)C(C)C)[C@@H](C)O [Compound 12, DesaminoTyr¹, Cya³, Ser⁸, Arg¹², Ala¹⁵, Leu²⁷, Ser²⁸, bGRF(1-32)NH₂] (Desaminotyrosyl-A[Cya]AIFTSSYRRVLAQLSARRLLQDILSRQQG-NH2) | – | – | 0.54 | 67 |
| CC[C@H](C)[C@H](NC(=O)[C@H](C)NC(=O)[C@H](CS(=O)(=O)O)NC(=O)[C@H](C)NC(=O)CCc1ccc(O)cc1)C(=O)N[C@@H](Cc1ccccc1)C(=O)N[C@H](C(=O)N[C@@H](CC(N)=O)C(=O)N[C@@H](CO)C(=O)N[C@@H](Cc1ccc(O)cc1)C(=O)N[C@@H](CCCNC(=N)N)C(=O)N[C@@H](CCCCN)C(=O)N[C@H](C(=O)N[C@@H](CC(C)C)C(=O)NCC(=O)N[C@@H](CCC(N)=O)C(=O)N[C@@H](CC(C)C)C(=O)N[C@@H](CO)C(=O)N[C@@H](C)C(=O)N[C@@H](CCCNC(=N)N)C(=O)N[C@@H](CCCCN)C(=O)N[C@@H](CC(C)C)C(=O)N[C@@H](CC(C)C)C(=O)N[C@@H](CCC(N)=O)C(=O)N[C@@H](CC(=O)O)C(=O)N[C@H](C(=O)N[C@@H](CC(C)C)C(=O)N[C@@H](CC(N)=O)C(=O)N[C@@H](CCCNC(=N)N)C(=O)N[C@@H](CCC(N)=O)C(=O)N[C@@H](CCC(N)=O)C(=O)NCC(N)=O)[C@@H](C)CC)C(C)C)[C@@H](C)O [Compound 5, Desamino-Tyr¹, Cya³, Leu²⁷-bGRF(1-32)NH₂] (Desaminotyrosyl-A[Cya]AIFTNSYRKVLGQLSARKLLQDILNRQQG-NH2) | 1.01 | – | – | 76 |
| CC[C@H](C)[C@H](NC(=O)[C@H](C)NC(=O)[C@H](CS(=O)(=O)O)NC(=O)[C@@H](C)NC(=O)CCc1ccc(O)cc1)C(=O)N[C@@H](Cc1ccccc1)C(=O)N[C@H](C(=O)N[C@@H](CC(N)=O)C(=O)N[C@@H](CO)C(=O)N[C@@H](Cc1ccc(O)cc1)C(=O)N[C@@H](CCCNC(=N)N)C(=O)N[C@@H](CCCCN)C(=O)N[C@H](C(=O)N[C@@H](CC(C)C)C(=O)NCC(=O)N[C@@H](CCC(N)=O)C(=O)N[C@@H](CC(C)C)C(=O)N[C@@H](CO)C(=O)N[C@@H](C)C(=O)N[C@@H](CCCNC(=N)N)C(=O)N[C@@H](CCCCN)C(=O)N[C@@H](CC(C)C)C(=O)N[C@@H](CC(C)C)C(=O)N[C@@H](CCC(N)=O)C(=O)N[C@@H](CC(=O)O)C(=O)N[C@H](C(=O)N[C@@H](CC(C)C)C(=O)N[C@@H](CC(N)=O)C(=O)N[C@@H](CCCNC(=N)N)C(=O)N[C@@H](CCC(N)=O)C(=O)N[C@@H](CCC(N)=O)C(=O)NCC(N)=O)[C@@H](C)CC)C(C)C)[C@@H](C)O [Compound 6, Desamino-Tyr¹, D-Ala²,, Cya³, Leu²⁷-bGRF(1-32)NH₂] (Desaminotyrosyl-[dA][Cya]AIFTNSYRKVLGQLSARKLLQDILNRQQG-NH2) | 0.26 | – | – | 51 |
| CC[C@H](C)[C@H](NC(=O)[C@H](C)NC(=O)[C@H](CC(=O)O)NC(=O)[C@H](C)NC(=O)Cc1ccc(O)cc1)C(=O)N[C@@H](Cc1ccccc1)C(=O)N[C@H](C(=O)N[C@@H](CO)C(=O)N[C@@H](CO)C(=O)N[C@@H](Cc1ccc(O)cc1)C(=O)N[C@@H](CCCNC(=N)N)C(=O)N[C@@H](CCCNC(=N)N)C(=O)N[C@H](C(=O)N[C@@H](CC(C)C)C(=O)N[C@@H](C)C(=O)N[C@@H](CCC(N)=O)C(=O)N[C@@H](CC(C)C)C(=O)N[C@@H](CO)C(=O)N[C@@H](C)C(=O)N[C@@H](CCCNC(=N)N)C(=O)N[C@@H](CCCNC(=N)N)C(=O)N[C@@H](CC(C)C)C(=O)N[C@@H](CC(C)C)C(=O)N[C@@H](CCC(N)=O)C(=O)N[C@@H](CS(=O)(=O)O)C(=O)N[C@H](C(=O)N[C@@H](CC(C)C)C(=O)N[C@@H](CO)C(=O)N[C@@H](CCCNC(=N)N)C(=O)N[C@@H](CCC(N)=O)C(=O)N[C@@H](CCC(N)=O)C(=O)NCC(N)=O)[C@@H](C)CC)C(C)C)[C@@H](C)O [Compound 15, Desamino PHPG¹, Ser⁸, Arg¹², Ala¹⁵, Cya²⁵, Leu²⁷, Ser²⁸, bGRF(1-32)NH₂] (X1-ADAIFTSSYRRVLAQLSARRLLQ[Cya]ILSRQQG-NH2) | – | – | 0.97 | 65 |
| CC[C@H](C)[C@H](NC(=O)[C@H](C)NC(=O)[C@H](CS(=O)(=O)O)NC(=O)[C@H](C)NC(=O)[C@@H](N)Cc1ccc(O)cc1)C(=O)N[C@@H](Cc1ccccc1)C(=O)N[C@H](C(=O)N[C@@H](CC(N)=O)C(=O)N[C@@H](CO)C(=O)N[C@@H](Cc1ccc(O)cc1)C(=O)N[C@@H](CCCNC(=N)N)C(=O)N[C@@H](CCCCN)C(=O)N[C@H](C(=O)N[C@@H](CC(C)C)C(=O)NCC(=O)N[C@@H](CCC(N)=O)C(=O)N[C@@H](CC(C)C)C(=O)N[C@@H](CO)C(=O)N[C@@H](C)C(=O)N[C@@H](CCCNC(=N)N)C(=O)N[C@@H](CCCCN)C(=O)N[C@@H](CC(C)C)C(=O)N[C@@H](CC(C)C)C(=O)N[C@@H](CCC(N)=O)C(=O)N[C@@H](CS(=O)(=O)O)C(=O)N[C@H](C(=O)N[C@@H](CC(C)C)C(=O)N[C@@H](CC(N)=O)C(=O)N[C@@H](CCCNC(=N)N)C(=O)N[C@@H](CCC(N)=O)C(=O)N[C@@H](CCC(N)=O)C(=O)NCC(N)=O)[C@@H](C)CC)C(C)C)[C@@H](C)O [Compound 2, Cya^3,25, Leu²⁷bGRF(1-32)NH₂] (H-YA[Cya]AIFTNSYRKVLGQLSARKLLQ[Cya]ILNRQQG-NH2) | 0.11 | – | – | – |
| CC[C@H](C)[C@H](NC(=O)[C@H](C)NC(=O)[C@H](CC(=O)O)NC(=O)[C@H](C)NC(=O)CCc1ccc(O)cc1)C(=O)N[C@@H](Cc1ccccc1)C(=O)N[C@H](C(=O)N[C@@H](CO)C(=O)N[C@@H](CO)C(=O)N[C@@H](Cc1ccc(O)cc1)C(=O)N[C@@H](CCCNC(=N)N)C(=O)N[C@@H](CCCNC(=N)N)C(=O)N[C@H](C(=O)N[C@@H](CC(C)C)C(=O)N[C@@H](C)C(=O)N[C@@H](CCC(N)=O)C(=O)N[C@@H](CC(C)C)C(=O)N[C@@H](CO)C(=O)N[C@@H](C)C(=O)N[C@@H](CCCNC(=N)N)C(=O)N[C@@H](CCCNC(=N)N)C(=O)N[C@@H](CC(C)C)C(=O)N[C@@H](CC(C)C)C(=O)N[C@@H](CCC(N)=O)C(=O)N[C@@H](CS(=O)(=O)O)C(=O)N[C@H](C(=O)N[C@@H](CC(C)C)C(=O)N[C@@H](CO)C(=O)N[C@@H](CCCNC(=N)N)C(=O)N[C@@H](CCC(N)=O)C(=O)N[C@@H](CCC(N)=O)C(=O)NCC(N)=O)[C@@H](C)CC)C(C)C)[C@@H](C)O [Compound 14, DesaminoTyr¹, Ser⁸, Arg¹², Ala¹⁵, Cya²⁵, Leu²⁷, Ser²⁸, bGRF(1-32)NH₂] (Desaminotyrosyl-ADAIFTSSYRRVLAQLSARRLLQ[Cya]ILSRQQG-NH2) | – | – | 1.21 | 65 |
